Data on 11 compounds can be found in ChEMBL document CHEMBL1156666, “Jerantinines A-G, cytotoxic Aspidosperma alkaloids from Tabernaemontana corymbosa” (J Nat Prod, 2008).

Assay [1] in a line: Cytotoxicity against vincristine sensitive human KB/S cells. In kind it is functional, cell-based.
Assay [2] can be described thus: Cytotoxicity against vincristine resistant human KB/VJ300 cells. The format is functional, cell-based.

SMILES strings stand for the structures.

Turning to `CC[C@]12C=CCN3CC[C@]4(C(=C(C(=O)OC)C1)Nc1cc(OC)c(OC)cc14)[C@@H]32` [10-O-METHYLJERANTININE A], the concentration for half-maximal inhibition (IC50) was found to be 12000 nM in assay [1] and 13600 nM in assay [2].
`CC[C@@]12CC(C(=O)OC)=C3Nc4cc(OC)c(OC)cc4[C@@]34CCN(C[C@@H]3O[C@@H]31)[C@@H]24` [10-O-METHYLJERANTININE B]: the figures for the half-inhibitory concentration (IC50) in assay [1] and in assay [2] were 7360 nM and 10700 nM, respectively.
Consider `CC[C@]12C=CCN3CC[C@]4(C(=C(C(=O)OC)C1)Nc1cc(OC)c(OC(C)=O)cc14)[C@@H]32` [JERANTININE A ACETATE], for which the half-inhibitory concentration (IC50) worked out at 1040 nM in assay [1] and 830 nM in assay [2].
As to `CC[C@]12C=CCN3CC[C@]4(C(=C(C(=O)OC)C1)Nc1cc(OC)c(O)cc14)[C@@H]32` [JERANTININE A], the figures for the IC50 in assay [1] and in assay [2] were 1990 nM and 1730 nM, respectively.
For the compound `CC[C@@]12CC(C(=O)OC)=C3Nc4cc(OC)c(OC(C)=O)cc4[C@@]34CCN(C[C@@H]3O[C@@H]31)[C@@H]24` [JERANTININE B ACETATE], the IC50 in assay [1] came out at 700 nM; in assay [2] it was 750 nM.
Consider `CC[C@@]12CC(C(=O)OC)=C3Nc4cc(OC)c(O)cc4[C@@]34CCN(C[C@@H]3O[C@@H]31)[C@@H]24` [JERANTININE B], for which the results for the concentration for half-maximal inhibition (IC50) in assay [1] and in assay [2] were 1110 nM and 950 nM, respectively.
Regarding `CC[C@]12C=CC(=O)N3CC[C@]4(C(=C(C(=O)OC)C1)Nc1cc(OC)c(O)cc14)[C@@H]32` [JERANTININE C], the IC50 in assay [1] was determined as 810 nM; in assay [2] it was 1540 nM.
`CC[C@@]12CC(C(=O)OC)=C3Nc4cc(OC)c(O)cc4[C@@]34CCN(C(=O)[C@@H]3O[C@@H]31)[C@@H]24` [JERANTININE D]: the IC50 in assay [1] amounted to 680 nM; in assay [2] it was 950 nM.
In the case of `CC[C@]12CCCN3CC[C@]4(C(=C(C(=O)OC)C1)Nc1cc(OC)c(O)cc14)[C@@H]32` [JERANTININE E], the IC50 in assay [1] was found to be 2550 nM; in assay [2] it was 2030 nM.
Turning to `COC(=O)C1=C2Nc3cc(OC)c(O)cc3[C@@]23CCN2CC[C@@H]4OCC[C@]4(C1)[C@H]23` [JERANTININE F], the IC50 in assay [1] was 12800 nM; in assay [2], 12300 nM.
As to `CC[C@]1(O)C[C@H]2CN(CCc3c([nH]c4ccccc34)[C@@](C(=O)OC)(c3cc4c(cc3OC)N(C=O)[C@H]3[C@@](O)(C(=O)OC)[C@H](OC(C)=O)[C@]5(CC)C=CCN6CC[C@]43[C@@H]65)C2)C1` [VINCRISTINE], the half-maximal inhibitory concentration (IC50) came out at 5.4 nM in assay [1] and 1200 nM in assay [2].

Usually IC50 stands for the concentration that inhibits the measured activity by half. Higher therefore signals weaker potency in that assay.
